In PMC5414049 (Science (New York, N.Y.), 2016):
pKi: −log10 of the molar value.

What was measured:
Format in all cases: biochemical
[1] = biological target: ornithine transcarbamylase (Arg3) (Saccharomyces cerevisiae, UniProt P05150)
[2] = biological target: T1, pyruvate kinase (Cdc19) (Saccharomyces cerevisiae, UniProt P00549)
T1 sequence (P00549 2-500): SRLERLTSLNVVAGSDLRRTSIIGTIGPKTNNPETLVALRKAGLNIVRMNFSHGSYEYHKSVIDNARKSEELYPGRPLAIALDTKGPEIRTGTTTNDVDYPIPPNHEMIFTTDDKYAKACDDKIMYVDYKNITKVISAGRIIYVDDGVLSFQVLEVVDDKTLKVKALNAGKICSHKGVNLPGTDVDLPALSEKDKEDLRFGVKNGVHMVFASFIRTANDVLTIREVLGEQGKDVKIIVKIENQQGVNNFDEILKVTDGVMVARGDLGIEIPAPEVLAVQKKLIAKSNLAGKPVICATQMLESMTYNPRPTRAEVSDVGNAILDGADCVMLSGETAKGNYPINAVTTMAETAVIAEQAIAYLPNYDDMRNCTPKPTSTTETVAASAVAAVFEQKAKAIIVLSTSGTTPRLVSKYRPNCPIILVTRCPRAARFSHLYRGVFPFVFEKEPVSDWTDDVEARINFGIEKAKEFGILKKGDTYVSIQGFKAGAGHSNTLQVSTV

[3] = biological target: T2, pyruvate decarboxylase (Pdc1) (Saccharomyces cerevisiae, UniProt P06169); experiment: ADH/NADH-coupled spectrophotometric assay, 1H-NMR confirmation
T2 sequence (P06169 2-563): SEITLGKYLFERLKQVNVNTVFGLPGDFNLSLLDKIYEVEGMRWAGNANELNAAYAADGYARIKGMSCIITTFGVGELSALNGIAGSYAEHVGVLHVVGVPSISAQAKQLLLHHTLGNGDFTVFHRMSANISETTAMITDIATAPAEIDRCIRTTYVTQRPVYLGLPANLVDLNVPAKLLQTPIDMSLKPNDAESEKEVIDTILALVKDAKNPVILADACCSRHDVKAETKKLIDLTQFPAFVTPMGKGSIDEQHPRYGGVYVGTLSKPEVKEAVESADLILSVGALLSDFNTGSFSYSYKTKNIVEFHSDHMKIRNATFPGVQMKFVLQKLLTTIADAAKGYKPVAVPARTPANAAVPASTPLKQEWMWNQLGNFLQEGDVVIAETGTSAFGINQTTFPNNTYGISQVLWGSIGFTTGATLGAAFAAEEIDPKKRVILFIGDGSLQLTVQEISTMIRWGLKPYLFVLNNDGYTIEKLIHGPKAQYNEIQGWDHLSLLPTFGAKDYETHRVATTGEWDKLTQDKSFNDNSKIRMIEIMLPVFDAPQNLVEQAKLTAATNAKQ

Chain of ornithine transcarbamylase (Arg3) (P05150 2-338): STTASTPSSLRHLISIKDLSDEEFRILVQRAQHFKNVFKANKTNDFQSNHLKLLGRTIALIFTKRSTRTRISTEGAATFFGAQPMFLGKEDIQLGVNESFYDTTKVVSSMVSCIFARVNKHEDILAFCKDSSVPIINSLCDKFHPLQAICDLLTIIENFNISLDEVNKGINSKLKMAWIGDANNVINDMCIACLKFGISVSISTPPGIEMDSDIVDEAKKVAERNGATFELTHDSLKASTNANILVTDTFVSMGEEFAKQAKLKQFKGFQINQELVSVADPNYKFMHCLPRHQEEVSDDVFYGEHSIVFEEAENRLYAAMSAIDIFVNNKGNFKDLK

C[C@H](N)C(=O)O [alanine]
pKi [1]: 1.82

O=C(O)CC(O)(CC(=O)O)C(=O)O [citrate]
pKi [2]: ~2.30

O=C(O)C(=O)Cc1ccccc1 [phenylpyruvate]
pKi [3]: 2.40 to 3.00
